According to patent publication US7553864B2, “Compounds for the treatment of inflammatory disorders and microbial diseases” (Schering Corporation, priority 2005, dated 2009):

System: LpxC enzyme
Experiment: LpxC enzyme assay (RapidFire high-throughput mass spectrometry)
Format: biochemical
Experimental: The standard LpxC assay consists of 0.2 nM LpxC enzyme, 1.0 μM UDP-3-O—(R-3-hydroxymyristoyl)-N-acetylglucosamine, and test compound, in assay buffer and 2% DMSO. Assay buffer is comprised of 25 mM HEPES, pH 7.3, 150 mM NaCl, 2.0 mM DTT, and 0.01% BSA. The enzyme reaction is carried out in a 96-well assay plate, in a final volume of 102 μL. Solutions of test compounds are prepared in 100% DMSO. Reaction additions, in order, are (1) 2.0 μL compound solution, (2) 80 μL of assay buffer, (3) 10 μL of 10 μM UDP-3-O—(R-3-hydroxymyristoyl)-N-acetylglucosamine (in assay buffer) and, (4) 10 μL of LpxC enzyme (20 nM in assay buffer) to initiate the reaction. In positive control reactions, addition (1) has 2.0 μL of 100% DMSO (without compound); these reactions are used as the total signal (TSB) value. Reactions are incubated at room temperature for 60 minutes when 10 μL of 1 N HCl is added to stop the reaction. The plate is shaken by hand for 10 seconds to ensure complete quenching. Assay plates are sealed with foil tape, and stored at −80° C. for 24-48 hr prior to analysis.
The concentrations of substrate and product in the reaction mixtures are determined with BioTrove's proprietary RapidFire™ high-throughput mass spectrometry (HTMS). Assay mixtures are partially purified with reverse phase chromatography, where they are washed with water containing 5 mM ammonium formate and eluted onto the mass spectrometer in 80% acetonitrile, 20% water, and 5 mM ammonium formate. The mass spectrometry peak areas of the substrate and product are measured to determine the concentration of these analytes. The assay signal is the percentage of substrate that is converted to product. Percent inhibition, % I, in test samples is determined from the following equation: […]

[1] = concentration 0.10 (unit not given)
[2] = concentration 0.20 (unit not given)
[3] = concentration 0.39 (unit not given)
[4] = concentration 0.78 (unit not given)
[5] = concentration 1.56 (unit not given)
[6] = concentration 3.13 (unit not given)
[7] = concentration 6.25 (unit not given)
[8] = concentration 12.50 (unit not given)
[9] = concentration 25 (unit not given)
[10] = concentration 50 (unit not given)

Row | SMILES | LpxC enzyme assay rating (% inhibition at indicated concentrations) [1] | LpxC enzyme assay rating (% inhibition at indicated concentrations) [2] | LpxC enzyme assay rating (% inhibition at indicated concentrations) [3] | LpxC enzyme assay rating (% inhibition at indicated concentrations) [4] | LpxC enzyme assay rating (% inhibition at indicated concentrations) [5] | LpxC enzyme assay rating (% inhibition at indicated concentrations) [6] | LpxC enzyme assay rating (% inhibition at indicated concentrations) [7] | LpxC enzyme assay rating (% inhibition at indicated concentrations) [8] | LpxC enzyme assay rating (% inhibition at indicated concentrations) [9] | LpxC enzyme assay rating (% inhibition at indicated concentrations) [10]
1 | CNC(=O)[C@H](O)[C@@H](O)C(=O)N1CCC(c2ccc(C(F)(F)F)cc2)CC1 [Compound 35] | C (less than 10% inhibition) | C (less than 10% inhibition) | C (less than 10% inhibition) | C (less than 10% inhibition) | B (10-30% inhibition) | C (less than 10% inhibition) | C (less than 10% inhibition) | C (less than 10% inhibition) | C (less than 10% inhibition) | B (10-30% inhibition)
2 | CNC(=O)[C@H](O)[C@@H](O)C(=O)N1CCC(c2ccc3ccccc3c2)CC1 [Compound 36] | C (less than 10% inhibition) | C (less than 10% inhibition) | C (less than 10% inhibition) | C (less than 10% inhibition) | C (less than 10% inhibition) | C (less than 10% inhibition) | C (less than 10% inhibition) | C (less than 10% inhibition) | C (less than 10% inhibition) | C (less than 10% inhibition)
3 | CNC(=O)[C@H](O)[C@@H](O)C(=O)N1CCN(c2ccc(-c3ncccn3)cc2)CC1 [Compound 37] | C (less than 10% inhibition) | C (less than 10% inhibition) | C (less than 10% inhibition) | C (less than 10% inhibition) | C (less than 10% inhibition) | C (less than 10% inhibition) | B (10-30% inhibition) | C (less than 10% inhibition) | B (10-30% inhibition) | C (less than 10% inhibition)
4 | CNC(=O)[C@H](O)[C@@H](O)C(=O)Nc1ccc(N2CCN(C)CC2)cc1 [Compound 38] | C (less than 10% inhibition) | C (less than 10% inhibition) | C (less than 10% inhibition) | C (less than 10% inhibition) | C (less than 10% inhibition) | C (less than 10% inhibition) | C (less than 10% inhibition) | C (less than 10% inhibition) | C (less than 10% inhibition) | B (10-30% inhibition)
5 | CNC(=O)[C@H](O)[C@@H](O)C(=O)Nc1ccc(OCCN(C)C)cc1 [Compound 39] | C (less than 10% inhibition) | C (less than 10% inhibition) | C (less than 10% inhibition) | B (10-30% inhibition) | C (less than 10% inhibition) | B (10-30% inhibition) | B (10-30% inhibition) | C (less than 10% inhibition) | C (less than 10% inhibition) | B (10-30% inhibition)
6 | CNC(=O)[C@H](O)[C@@H](O)C(=O)Nc1ccc(OCCCN(C)C)cc1 [Compound 40] | C (less than 10% inhibition) | C (less than 10% inhibition) | C (less than 10% inhibition) | B (10-30% inhibition) | C (less than 10% inhibition) | C (less than 10% inhibition) | C (less than 10% inhibition) | B (10-30% inhibition) | B (10-30% inhibition) | C (less than 10% inhibition)
7 | CNC(=O)[C@H](O)[C@@H](O)C(=O)Nc1ccc(-n2cccn2)cc1 [Compound 41] | C (less than 10% inhibition) | C (less than 10% inhibition) | C (less than 10% inhibition) | C (less than 10% inhibition) | B (10-30% inhibition) | B (10-30% inhibition) | B (10-30% inhibition) | C (less than 10% inhibition) | B (10-30% inhibition) | B (10-30% inhibition)
8 | CNC(=O)[C@H](O)[C@@H](O)C(=O)Nc1ccc(-c2cc[nH]n2)cc1 [Compound 42] | C (less than 10% inhibition) | C (less than 10% inhibition) | B (10-30% inhibition) | B (10-30% inhibition) | B (10-30% inhibition) | C (less than 10% inhibition) | B (10-30% inhibition) | B (10-30% inhibition) | B (10-30% inhibition) | C (less than 10% inhibition)
9 | CN(C)C(=O)[C@H](O)[C@@H](O)C(=O)Nc1ccc(C#Cc2ccccc2)cc1 [Compound 43] | C (less than 10% inhibition) | B (10-30% inhibition) | C (less than 10% inhibition) | C (less than 10% inhibition) | B (10-30% inhibition) | B (10-30% inhibition) | B (10-30% inhibition) | A (greater than 30% inhibition) | A (greater than 30% inhibition) | A (greater than 30% inhibition)
